# Test results reported in patent US10993941B2, “Methods for the administration of certain VMAT2 inhibitors” (Neurocrine Biosciences, Inc., priority 2017, dated 2021).
# Entries after “also recorded” stand apart in the source; their conditions may differ.
# Key:
# [1] = system: serum prolactin; test: Prolactin release, in vivo surrogate measure
# [2] = system: ptosis; test: Ptosis, in vivo surrogate measure
# [3] = biological target: T1, human VMAT1 transporter (Homo sapiens, UniProt P54219); test: Uptake in cells expressing VMAT1; assay type: cell-based; conditions: concentrations up to 10 μM
# T1 construct: expressed in transfected cells
# T1 sequence (P54219 1-525): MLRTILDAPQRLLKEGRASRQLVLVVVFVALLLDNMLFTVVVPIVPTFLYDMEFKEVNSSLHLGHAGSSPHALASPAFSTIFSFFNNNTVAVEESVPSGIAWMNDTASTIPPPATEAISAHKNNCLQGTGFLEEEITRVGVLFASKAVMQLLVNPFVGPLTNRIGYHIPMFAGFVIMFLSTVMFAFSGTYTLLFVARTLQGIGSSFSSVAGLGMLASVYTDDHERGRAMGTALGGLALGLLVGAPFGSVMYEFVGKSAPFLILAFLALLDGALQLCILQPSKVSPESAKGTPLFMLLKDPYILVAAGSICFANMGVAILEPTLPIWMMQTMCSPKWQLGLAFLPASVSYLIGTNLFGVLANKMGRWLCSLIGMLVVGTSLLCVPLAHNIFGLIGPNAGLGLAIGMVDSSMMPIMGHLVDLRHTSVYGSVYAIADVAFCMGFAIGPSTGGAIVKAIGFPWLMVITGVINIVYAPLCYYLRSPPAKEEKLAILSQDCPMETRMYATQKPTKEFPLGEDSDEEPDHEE
# Protocol: None of the TBZ or VBZ metabolites had any affinity for the monoamine transporters DAT, SERT or NET. To complete the selectivity profile for VMAT2, the functional activity for the human VMAT1 transporter of these compounds was tested in cells expressing VMAT1.
# [4] = biological target: Dopamine D1 (Homo sapiens, UniProt P21728); test: Cerep screen, ligand binding; conditions: radioligand binding assays and broad panel screen
# [5] = biological target: Dopamine D2(s) (Homo sapiens, UniProt P14416); test: Cerep screen, ligand binding; conditions: radioligand binding assays and broad panel screen
# [6] = system: more than 80 targets including GPCRs, cell-surface monoamine transporters, and ion channels including HERG; test: Multi-target activity screen (Cerep screen); conditions: receptors
# [7] = biological target: T2, VMAT2 (Rattus norvegicus, UniProt Q01827); test: Inhibition of [3H]-DHTBZ binding to rat striatal membranes; conditions: Rat Striatum
# T2 construct: from tissue; host or cells: rat forebrain membranes
# [8] = biological target: T3, VMAT2 (Homo sapiens, UniProt Q05940); test: Inhibition of [3H]-DHTBZ binding to human platelets
# T3 construct: from tissue; host or cells: human platelets (homogenates)
# [9] = clinical; conditions: both, human, in vivo
# Source text: (§1) Overall, 24 male and female subjects were enrolled, including 6 subjects with normal hepatic function (Group I), 6 with mild stable hepatic impairment (Group II), 6 with moderate stable hepatic impairment (Group III), and 6 with severe stable hepatic impairment (Group IV). […] All subjects were genotyped to determine their cytochrome P450 2D6 (CYP2D6) status.
# (§2) The Child-Pugh scale was used to categorize the degree of hepatic impairment for assignment into the mild (score of 5-6), moderate (score of 7-9), and severe hepatic impairment (score of 10-15) groups.
# (§3) After providing informed consent, subjects were screened for eligibility within 28 days of study drug dosing on Day 1. Eligible subjects were admitted to the center in the morning (Day −1), before the dosing day and remained confined in the center for 4 days. Subjects were discharged on Day 4, after the collection of the 72-hour PK sample and safety assessments. On the morning of Days 5 and 6, subjects returned to the center for a PK sample collection and safety assessments; a final study visit was conducted on Day 8 (7 days postdose).
# (§4) Safety assessments were conducted at scheduled times throughout the study.
# [10] = Phase 1 single-dose safety and tolerability (adverse events, laboratory tests, vital signs, ECG); assay type: in vivo, human; conditions: NBI-98854 50 mg single dose; for Abdominal discomfort / Adverse events: Overall / Back pain / Constipation / Dyspepsia / Epistaxis / Gastrointestinal Disorders / General Disorders and Administrative Site Conditions / Haemorrhoids / Headache / Infections and Infestations / Musculoskeletal and Connective Tissue Disorders / Nausea / Nervous System Disorders / Rash / Respiratory, Thoracic, and Mediastinal Disorders / Rhinitis / Skin and Subcutaneous Tissue Disorders / Vessel puncture site haematoma: subjects n (%)
# [11] = both, human, in vivo
# Source text: as §1, §2, §3, §4
# [12] = system: dopamine, serotonin and adrenergic receptor subtypes; test: Detailed radioligand binding assays, monoamine receptor subtypes
# Chain of Dopamine D2(s) (P14416 1-414 isoform P14416-2): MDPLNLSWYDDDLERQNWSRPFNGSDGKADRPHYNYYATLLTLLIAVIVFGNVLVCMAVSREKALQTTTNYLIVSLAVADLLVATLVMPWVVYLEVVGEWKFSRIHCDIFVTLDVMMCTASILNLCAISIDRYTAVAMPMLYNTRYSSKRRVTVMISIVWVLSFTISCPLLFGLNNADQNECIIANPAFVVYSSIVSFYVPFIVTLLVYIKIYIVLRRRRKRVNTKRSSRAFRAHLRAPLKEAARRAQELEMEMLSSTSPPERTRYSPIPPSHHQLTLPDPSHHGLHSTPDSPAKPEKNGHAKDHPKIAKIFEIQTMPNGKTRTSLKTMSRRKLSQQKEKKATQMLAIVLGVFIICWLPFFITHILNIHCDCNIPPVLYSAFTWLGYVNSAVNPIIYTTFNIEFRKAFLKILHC
# Chain of Dopamine D1 (P21728 whole entry): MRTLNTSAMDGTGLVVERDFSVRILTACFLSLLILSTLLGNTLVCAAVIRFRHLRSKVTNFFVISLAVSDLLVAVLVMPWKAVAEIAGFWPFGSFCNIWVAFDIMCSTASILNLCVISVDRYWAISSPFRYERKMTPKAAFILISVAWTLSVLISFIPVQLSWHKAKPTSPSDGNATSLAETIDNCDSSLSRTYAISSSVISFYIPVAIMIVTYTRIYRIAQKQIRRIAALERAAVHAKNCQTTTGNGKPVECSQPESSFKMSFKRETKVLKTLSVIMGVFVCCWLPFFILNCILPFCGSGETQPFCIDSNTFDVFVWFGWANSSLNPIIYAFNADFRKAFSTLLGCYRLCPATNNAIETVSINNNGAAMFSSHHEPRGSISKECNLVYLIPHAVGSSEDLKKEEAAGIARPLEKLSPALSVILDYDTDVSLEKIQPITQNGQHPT
# T2 sequence (Q01827 whole entry): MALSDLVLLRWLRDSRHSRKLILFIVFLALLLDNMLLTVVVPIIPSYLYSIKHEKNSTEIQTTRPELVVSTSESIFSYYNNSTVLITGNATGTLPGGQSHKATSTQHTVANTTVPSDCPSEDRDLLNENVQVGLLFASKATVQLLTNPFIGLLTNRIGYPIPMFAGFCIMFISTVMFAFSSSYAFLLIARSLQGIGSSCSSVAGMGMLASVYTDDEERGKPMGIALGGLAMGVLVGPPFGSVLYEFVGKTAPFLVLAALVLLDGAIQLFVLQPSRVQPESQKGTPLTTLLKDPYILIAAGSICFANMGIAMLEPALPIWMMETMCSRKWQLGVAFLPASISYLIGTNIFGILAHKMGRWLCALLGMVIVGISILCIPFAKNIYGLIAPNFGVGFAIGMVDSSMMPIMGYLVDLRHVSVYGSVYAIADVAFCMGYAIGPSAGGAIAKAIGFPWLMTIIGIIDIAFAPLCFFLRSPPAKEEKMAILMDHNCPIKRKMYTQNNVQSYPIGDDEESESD
# T3 sequence (Q05940 whole entry): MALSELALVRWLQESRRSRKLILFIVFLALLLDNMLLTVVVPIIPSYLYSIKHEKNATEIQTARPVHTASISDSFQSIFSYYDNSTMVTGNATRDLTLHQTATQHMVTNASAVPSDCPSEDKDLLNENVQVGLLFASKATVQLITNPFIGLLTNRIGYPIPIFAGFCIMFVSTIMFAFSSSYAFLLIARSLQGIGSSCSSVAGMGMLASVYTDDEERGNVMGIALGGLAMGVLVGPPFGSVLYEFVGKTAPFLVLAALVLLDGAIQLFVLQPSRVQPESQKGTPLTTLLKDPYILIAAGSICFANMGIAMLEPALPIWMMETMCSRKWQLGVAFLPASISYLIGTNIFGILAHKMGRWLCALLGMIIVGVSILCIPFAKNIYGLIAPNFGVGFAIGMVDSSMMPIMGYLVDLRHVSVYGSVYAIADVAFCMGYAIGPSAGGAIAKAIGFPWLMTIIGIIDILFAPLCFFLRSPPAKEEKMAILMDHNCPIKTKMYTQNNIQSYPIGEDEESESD
smiles,measurement,setting,value
"COc1cc2c(cc1OC)C1CC(=O)C(CC(C)C)CN1CC2 (centres unmarked) [TBZ, reference compound]",increase in serum prolactin levels,[1],increase in serum prolactin levels
same,induction of ptosis,[2],induced ptosis in an equivalent manner
same,inhibition of uptake through VMAT1,[3],no significant inhibitory activity; also recorded: no significant effect on the uptake of monoamines through VMAT1
"COc1cc2c(cc1OC)[C@@H]1C[C@@H](O)[C@@H](CC(C)C)CN1CC2 [R,S,S-DHTBZ]",interaction with D1 receptors,[4],interact with D1 and D2 receptors
same,interaction with D2 receptors,[5],interact with D1 and D2 receptors
"COc1cc2c(cc1OC)[C@H]1C[C@@H](OC(=O)[C@@H](N)C(C)C)[C@H](CC(C)C)CN1CC2 [NBI-98854, (S)-2-amino-3-methyl-butyric acid (2R,3R,11bR)-3-isobutyl-9,10-dimethoxy-1,3,4,6,7,11b-hexahydro-2H-pyrido[2,1-a]isoquinolin-2-yl ester]",affinity for more than 80 binding sites,[6],little to no affinity
same,increase in serum prolactin levels,[1],to a lesser extent
same,"Affinity Relative to R,R,R-DHTBZ",[7],39
same,induction of ptosis,[2],induced ptosis in an equivalent manner
same,"Affinity Relative to R,R,R-DHTBZ",[8],45
same,inhibition of uptake through VMAT1,[3]; listed as VBZ,no significant inhibitory activity; also recorded: no significant effect on the uptake of monoamines through VMAT1
same,MRT,[9],23 to 30 h
same,half-life,[9]; mean t1/2,1260 to 1320 min
same,MRT,"[9]; po, 50 mg",24 h
same,Tmax,"[9]; po, 50 mg, TMAX",1.1 h
same,Vd/F,"[9]; po, 50 mg, Vz/F",600 L
same,half-life,"[9]; po, 50 mg, t1/2",1680 min
same,Abdominal discomfort,[10]; Mild (N = 6),0
same,Adverse events: Overall,[10]; Mild (N = 6),2 (33.3%)
same,Back pain,[10]; Mild (N = 6),0
same,Constipation,[10]; Mild (N = 6),0
same,Dyspepsia,[10]; Mild (N = 6),0
same,Epistaxis,[10]; Mild (N = 6),0
same,Gastrointestinal Disorders,[10]; Mild (N = 6),1 (16.7%)
same,General Disorders and Administrative Site Conditions,[10]; Mild (N = 6),0
same,Haemorrhoids,[10]; Mild (N = 6),1 (16.7%)
same,Headache,[10]; Mild (N = 6),1 (16.7%)
same,Infections and Infestations,[10]; Mild (N = 6),1 (16.7%)
same,Musculoskeletal and Connective Tissue Disorders,[10]; Mild (N = 6),0
same,Nausea,[10]; Mild (N = 6),0
same,Nervous System Disorders,[10]; Mild (N = 6),1 (16.7%)
same,Rash,[10]; Mild (N = 6),0
same,"Respiratory, Thoracic, and Mediastinal Disorders",[10]; Mild (N = 6),0
same,Rhinitis,[10]; Mild (N = 6),1 (16.7%)
same,Skin and Subcutaneous Tissue Disorders,[10]; Mild (N = 6),0
same,Vessel puncture site haematoma,[10]; Mild (N = 6),0
same,Abdominal discomfort,[10]; Moderate (N = 6),0
same,Adverse events: Overall,[10]; Moderate (N = 6),2 (33.3%)
same,Back pain,[10]; Moderate (N = 6),1 (16.7%)
same,Constipation,[10]; Moderate (N = 6),1 (16.7%)
same,Dyspepsia,[10]; Moderate (N = 6),0
same,Epistaxis,[10]; Moderate (N = 6),0
same,Gastrointestinal Disorders,[10]; Moderate (N = 6),1 (16.7%)
same,General Disorders and Administrative Site Conditions,[10]; Moderate (N = 6),0
same,Haemorrhoids,[10]; Moderate (N = 6),0
same,Headache,[10]; Moderate (N = 6),0
same,Infections and Infestations,[10]; Moderate (N = 6),0
same,Musculoskeletal and Connective Tissue Disorders,[10]; Moderate (N = 6),1 (16.7%)
same,Nausea,[10]; Moderate (N = 6),0
same,Nervous System Disorders,[10]; Moderate (N = 6),0
same,Rash,[10]; Moderate (N = 6),1 (16.7%)
same,"Respiratory, Thoracic, and Mediastinal Disorders",[10]; Moderate (N = 6),0
same,Rhinitis,[10]; Moderate (N = 6),0
same,Skin and Subcutaneous Tissue Disorders,[10]; Moderate (N = 6),1 (16.7%)
same,Vessel puncture site haematoma,[10]; Moderate (N = 6),0
same,Abdominal discomfort,[10]; Normal (N = 6),1 (16.7%)
same,Adverse events: Overall,[10]; Normal (N = 6),2 (33.3%)
same,Back pain,[10]; Normal (N = 6),0
same,Constipation,[10]; Normal (N = 6),0
same,Dyspepsia,[10]; Normal (N = 6),0
same,Epistaxis,[10]; Normal (N = 6),0
same,Gastrointestinal Disorders,[10]; Normal (N = 6),1 (16.7%)
same,General Disorders and Administrative Site Conditions,[10]; Normal (N = 6),1 (16.7%)
same,Haemorrhoids,[10]; Normal (N = 6),0
same,Headache,[10]; Normal (N = 6),0
same,Infections and Infestations,[10]; Normal (N = 6),0
same,Musculoskeletal and Connective Tissue Disorders,[10]; Normal (N = 6),0
same,Nausea,[10]; Normal (N = 6),0
same,Nervous System Disorders,[10]; Normal (N = 6),0
same,Rash,[10]; Normal (N = 6),0
same,"Respiratory, Thoracic, and Mediastinal Disorders",[10]; Normal (N = 6),0
same,Rhinitis,[10]; Normal (N = 6),0
same,Skin and Subcutaneous Tissue Disorders,[10]; Normal (N = 6),0
same,Vessel puncture site haematoma,[10]; Normal (N = 6),1 (16.7%)
same,Abdominal discomfort,[10]; Severe (N = 6),0
same,Adverse events: Overall,[10]; Severe (N = 6),2 (33.3%)
same,Back pain,[10]; Severe (N = 6),0
same,Constipation,[10]; Severe (N = 6),0
same,Dyspepsia,[10]; Severe (N = 6),1 (16.7%)
same,Epistaxis,[10]; Severe (N = 6),1 (16.7%)
same,Gastrointestinal Disorders,[10]; Severe (N = 6),1 (16.7%)
same,General Disorders and Administrative Site Conditions,[10]; Severe (N = 6),0
same,Haemorrhoids,[10]; Severe (N = 6),0
same,Headache,[10]; Severe (N = 6),0
same,Infections and Infestations,[10]; Severe (N = 6),0
same,Musculoskeletal and Connective Tissue Disorders,[10]; Severe (N = 6),0
same,Nausea,[10]; Severe (N = 6),1 (16.7%)
same,Nervous System Disorders,[10]; Severe (N = 6),0
same,Rash,[10]; Severe (N = 6),0
same,"Respiratory, Thoracic, and Mediastinal Disorders",[10]; Severe (N = 6),1 (16.7%)
same,Rhinitis,[10]; Severe (N = 6),0
same,Skin and Subcutaneous Tissue Disorders,[10]; Severe (N = 6),0
same,Vessel puncture site haematoma,[10]; Severe (N = 6),0
same,intensity of TEAEs judged by the investigator,[10]; all TEAEs,mild in intensity
same,"changes in clinical laboratory tests, vital signs measurements, or ECG parameters",[10]; all groups,no clinically significant changes
same,"deaths, serious or severe TEAEs",[10]; all groups,"No deaths, serious or severe treatment-emergent adverse events (TEAEs) were reported; also recorded: No deaths, serious TEAEs, or discontinuations due to an AE were reported"
same,discontinuation due to a TEAE,[10]; all groups,no subject discontinued the study due to a TEAE
same,tolerability,[10]; normal subjects and subjects with hepatic impairment,well-tolerated
same,Treatment-related AEs (possibly or definitely related to study drug),[10]; of 24 subjects,4 subjects
same,increase in Cmax,[11],2-3 fold
same,increase in t1/2 with hepatic impairment,[11],< 2 fold
same,increase in tmax with hepatic impairment,[11],< 2 fold
same,mean Tlag,[11],0.17 to 0.38 h
"COc1cc2c(cc1OC)[C@H]1C[C@@H](O)[C@H](CC(C)C)CN1CC2 [NBI-98782, (2R,3R,11bR)-3-isobutyl-9,10-dimethoxy-1,3,4,6,7,11b-hexahydro-2H-pyrido[2,1-a]isoquinolin-2-ol]",affinity for more than 80 binding sites,[6],little to no affinity
same,increase in serum prolactin levels,[1],induced a similar increase in serum prolactin levels as TBZ
same,induction of ptosis,[2],induced ptosis in an equivalent manner
same,inhibition of uptake through VMAT1,"[3]; listed as R,R,R-DHTBZ",no significant inhibitory activity; also recorded: no significant effect on the uptake of monoamines through VMAT1
same,MRT,[9],36 to 53 h
same,MRT,"[9]; po, 50 mg",36 h
same,increase in AUC0-∞,[11],approximately 3.5 fold
same,increase in t1/2 with hepatic impairment,[11],< 2 fold
same,increase in tmax with hepatic impairment,[11],< 2 fold
same,mean Tlag,[11],0.42 to 0.67 h
same,specificity for the VMAT2 transporter versus monoamine receptor subtypes,[12],high specificity
COc1cc2c(cc1OC)[C@H]1C[C@@H](OC(=O)[C@@H](N)C(C)(C)O)[C@H](CC(C)C)CN1CC2 [NBI-136110],affinity for more than 80 binding sites,[6],little to no affinity
same,MRT,[9],51 to 81 h
same,half-life,[9]; mean t1/2,1980 to 2160 min
same,Tmax,[9]; median tmax,2.5 to 4 h
same,AUC(0-t),"[9]; po, 50 mg, AUC0-24",363 ng·h/mL
same,AUC(0-t),"[9]; po, 50 mg, AUC0-TLAST",928 ng·h/mL
same,AUC(0-inf),"[9]; po, 50 mg, AUC0-∞",1030 ng·h/mL
same,Cmax,"[9]; po, 50 mg, CMAX",32.5 ng/mL
same,MRT,"[9]; po, 50 mg",53 h
same,Tmax,"[9]; po, 50 mg, TMAX",4 h
same,half-life,"[9]; po, 50 mg, t1/2",3420 min
same,increase in AUC0-∞,[11],< 2 fold
same,increase in Cmax,[11],< 2 fold
same,increase in t1/2 with hepatic impairment,[11],< 2 fold
same,increase in tmax with hepatic impairment,[11],< 2 fold
same,mean Tlag,[11],0.33 to 0.54 h
same,mean molar ratio of plasma AUC0-∞ for NBI-136110 versus NBI-98854,[11],28.3-37.3%
"COc1cc2c(cc1OC)[C@@H]1C[C@H](O)[C@@H](CC(C)C)CN1CC2 [S,S,S-DHTBZ]",interaction with D1 receptors,[4],interact with D1 and D2 receptors
same,interaction with D2 receptors,[5],interact with D1 and D2 receptors
"COC(=O)[C@H]1[C@H]2C[C@@H]3c4[nH]c5cc(OC)ccc5c4CCN3C[C@H]2C[C@@H](OC(=O)c2cc(OC)c(OC)c(OC)c2)[C@@H]1OC [reserpine, reference compound]",inhibition of uptake through VMAT1,[3],substantially inhibited uptake through VMAT1
